In the supplement of paper PMC7600603:

Assays:
DLD1 NRF2-GOF [1] = test: drug sensitivity score (DSS) viability (DSS score); higher = more sensitive; extreme values may be limits of the assay; details: 72 h; CellTiter-Glo viability
Summary of the method: (§1)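 Library compounds were tested in 384-well plates at 5 concentrations covering a 10,000-fold span against isogenic DLD1 colorectal cancer cells, NRF2 wild-type or CRISPR gain-of-function, grown in DMEM with 10% FBS. Viability was measured at 72 h with CellTiter-Glo on a Pherastar FS reader, relative to vehicle wells and 100-μM positive-control wells. EC50 and drug sensitivity score (normalised area under the curve) were derived from logistic dose-response curves fitted with four parameters.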

DLD1 NRF2-WT [2] = test: as above; details: 72 h; CellTiter-Glo viability
Summary of the method: as §1

DLD1 NRF2-GOF [3] = test: drug sensitivity score (DSS) cytotoxicity (DSS score); higher = more toxic; extreme values may be limits of the assay; details: 72 h; CellTox Green cytotoxicity
Summary of the method: (§2)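 TC50 and drug sensitivity score, a normalised area under the curve, were derived by logistic dose-response fits of cytotoxicity. The cells were an isogenic DLD1 colorectal cancer pair, NRF2 wild-type or CRISPR-edited, kept in DMEM with 10% FBS. Compounds were tested in 384-well plates at 5 concentrations across a 10,000-fold range for 72 h. Readings with CellTox Green on a Pherastar FS reader were normalised to vehicle wells and 100-μM positive-control wells.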

DLD1 NRF2-WT [4] = test: as above; details: 72 h; CellTox Green cytotoxicity
Summary of the method: as §2

DLD1 NRF2-GOF [5] = details: 72 h; CellTiter-Glo viability
Summary of the method: as §1

DLD1 NRF2-WT [6] = details: 72 h; CellTiter-Glo viability
Summary of the method: as §1

DLD1 NRF2-GOF [7] = test: TC50 cytotoxicity; higher = less toxic; details: 72 h; CellTox Green cytotoxicity
Summary of the method: as §2

DLD1 NRF2-WT [8] = test: TC50 cytotoxicity; higher = less toxic; details: 72 h; CellTox Green cytotoxicity
Summary of the method: as §2

SMILES	drug sensitivity score (DLD1 NRF2-GOF [1])	drug sensitivity score (DLD1 NRF2-WT [2])	drug sensitivity score (DLD1 NRF2-GOF [3])	drug sensitivity score (DLD1 NRF2-WT [4])	EC50 viability (DLD1 NRF2-GOF [5]) [nM]	EC50 viability (DLD1 NRF2-WT [6]) [nM]	TC50 cytotoxicity (DLD1 NRF2-GOF [7]) [nM]	TC50 cytotoxicity (DLD1 NRF2-WT [8]) [nM]
CC(C)(C)c1cnc(CSc2cnc(NC(=O)C3CCNCC3)s2)o1 [SNS-032]	17.5	23.1	0	0.8	223	98.4	> 10000	> 10000
COc1cc(Nc2ncc(F)c(Nc3ccc4c(n3)N(COP(=O)(O)O)C(=O)C(C)(C)O4)n2)cc(OC)c1OC [Fostamatinib]	7.4	6.2	0.2	0	93	38.5	> 2500	> 2500
O=C1NC(=O)[C@@H](c2cn3c4c(cccc24)CCC3)[C@@H]1c1c[nH]c2ccccc12 [Tivantinib]	5	6.7	0.9	1.4	242	164	> 1000	> 1000
CCN(CC)CCCC(C)Nc1ccnc2cc(Cl)ccc12 (stereo not given) [Chloroquine]	11.8	13.8	5	6	9780	6410	25800	26100
COc1cc(N2CCN(C)CC2)ccc1Nc1nccc(-c2cn(C)c3cnccc23)n1 [AZ191]	5.2	7	0	0.3	1780	1590	> 10000	> 10000
Nc1nc(Cl)nc2c1ncn2[C@H]1C[C@H](O)[C@@H](CO)O1 [Cladribine]	5.5	10.4	0	0	145	25.6	> 1000	> 1000
NC1(C(=O)N[C@@H](CCO)c2ccc(Cl)cc2)CCN(c2ncnc3[nH]ccc23)CC1 [AZD-5363]	5.2	6.1	0	0	1510	687	> 10000	> 10000
COc1cc(C)[nH]c(=O)c1CNC(=O)c1c(C)n([C@H](C)C2CCOCC2)c2ccccc12 [CPI-360]	7.4	0	0	0	198	> 10000	> 10000	> 10000
Cc1cc(C)c(CNC(=O)c2cc(-c3ccc(CN4CCOCC4)cc3)cc3c2cnn3C2CCCC2)c(=O)[nH]1 [EPZ-5687]	3.2	3.3	0	0	1680	> 10000	> 10000	> 10000
C[C@@H](Oc1ccc2[nH]nc(/C=C/c3cnn(CCO)c3)c2c1)c1c(Cl)cncc1Cl	2	1.4	0	0	> 1000	> 1000	> 1000	> 1000
O=c1[nH]cc(F)c(=O)[nH]1 [Fluorouracil]	7.1	10.3	0	0	176	1	> 10000	> 10000
CCCCCCCCc1ccc(CCC(N)(CO)CO)cc1 [Fingolimod]	6.7	5.5	6.4	5.6	2580	3220	2730	2420
O=C(O)c1ccc2c(c1)nc(Nc1cccc(Cl)c1)c1ccncc12 [Silmitasertib]	2.8	2.1	0	0.3	1520	3600	> 10000	> 10000
N#CC(c1ccnc(OCc2ccc(CN3CCOCC3)cc2)n1)c1nc2ccccc2s1 (stereo not given) [Bentamapimod]	0	0	0	0	> 10000	> 10000	> 10000	> 10000
CN1CCc2c(c3ccccc3n2Cc2ccc(C(=O)NO)cc2)C1 [Tubastatin A]	4.1	4	0	0	1560	295	> 10000	> 10000
COc1cc(Nc2ncc3c(n2)-c2ccc(Cl)cc2C(c2c(F)cccc2OC)=NC3)ccc1C(=O)O [Alisertib]	15.9	10.3	6.6	2.8	47.8	27.9	205	939
NC(=O)N1CCC(CC(=O)N2CCC([C@H]3c4ncc(Br)cc4CCc4cc(Cl)cc(Br)c43)CC2)CC1 [Lonafarnib]	9.7	11	6.7	6.3	14200	10500	24200	23500
Cc1cc(Nc2cc(CN3CCOCC3)c3nc(C)c(Cc4ccc(Cl)cc4F)n3n2)n[nH]1 [Gandotinib]	6.2	5	6.1	2.8	2090	2280	1620	1890

SMILES	drug sensitivity score (DLD1 NRF2-GOF [1])	drug sensitivity score (DLD1 NRF2-WT [2])	drug sensitivity score (DLD1 NRF2-GOF [3])	drug sensitivity score (DLD1 NRF2-WT [4])	EC50 viability (DLD1 NRF2-GOF [5]) [nM]	EC50 viability (DLD1 NRF2-WT [6]) [nM]	TC50 cytotoxicity (DLD1 NRF2-GOF [7]) [nM]	TC50 cytotoxicity (DLD1 NRF2-WT [8]) [nM]
C/C(=C\c1csc(C)n1)[C@@H]1C[C@@H]2O[C@]2(C)CCC[C@H](C)[C@H](O)[C@@H](C)C(=O)C(C)(C)[C@@H](O)CC(=O)N1 [Ixabepilone]	4.2	3.5	0.5	2.4	317	407	> 1000	201
CCN(CC)CCN(Cc1ccc(-c2ccc(C(F)(F)F)cc2)cc1)C(=O)Cn1c(SCc2ccc(F)cc2)nc(=O)c2c1CCC2 [Darapladib]	4.1	0	0	0	> 1000	> 1000	> 1000	> 1000
C=CCn1c(=O)c2cnc(Nc3ccc(N4CCN(C)CC4)cc3)nc2n1-c1cccc(C(C)(C)O)n1 [AZD1775]	16.9	14.5	6.1	5.7	143	353	171	1000
C#Cc1cccc(Nc2ncnc3cc(OCCOC)c(OCCOC)cc23)c1 [Erlotinib]	1.3	6.9	0	0	3540	321	> 10000	> 10000
COc1cc2c(Oc3ccc4[nH]c(C)cc4c3F)ncnc2cc1OCCCN1CCCC1 [Cediranib]	10.2	7	0	0	12.1	44.2	> 1000	> 1000
Cc1cccc(-c2nn3c(c2-c2ccnc4ccc(C(N)=O)cc24)CCC3)n1 [Galunisertib]	2.6	1.6	0	0	163	> 1000	> 1000	> 1000
CCN(CC)CCNC(=O)c1c(C)[nH]c(/C=C2\C(=O)Nc3ccc(F)cc32)c1C [Sunitinib]	2.8	1.9	0	0	229	381	> 1000	> 1000
Nc1ccccc1NC(=O)c1ccc(CNC(=O)OCc2cccnc2)cc1 [Entinostat]	0	0	0	0	> 10000	> 10000	> 10000	> 10000
COc1ccccc1S(=O)(=O)Nc1ccc2c(c1)CN(C)C(=O)N2 [PFI-1]	0	3.2	0	0	> 30000	1940	> 30000	> 30000
CC[C@@](C)(Nc1ccnc(-c2c[nH]c3ncccc23)n1)C(=O)NCC(F)(F)F [Decernotinib]	0	0	0	0	> 10000	> 10000	> 10000	> 10000
CC(C)[C@H](C(=O)Nc1ccc(C(=O)NO)cc1)c1ccccc1 [AR-42]	5.7	9.4	0	4	1730	1260	> 10000	1970
N#Cc1ccnc(N2C(=O)CC[C@H]2C(=O)N(c2cncc(F)c2)[C@H](C(=O)NC2CC(F)(F)C2)c2ccccc2Cl)c1 [Ivosidenib]	6.1	0.5	0	0	349	> 10000	> 10000	> 10000
CC(C)NC(=O)COc1cccc(-c2nc(Nc3ccc4[nH]ncc4c3)c3ccccc3n2)c1 [KD025]	5.4	1.8	0	0	42.9	2280	> 5000	> 5000
CCN(CC)C(=S)SSC(=S)N(CC)CC [Disulfiram(+CuCl2)]	0.1	0.1	0	0	> 50000	> 50000	> 50000	> 50000
CN[C@@H](C)C(=O)N[C@H]1CN(C(=O)CC(C)C)CC[C@H]2CC[C@@H](C(=O)NC(c3ccccc3)c3ccccc3)N2C1=O [AT-406]	2.6	0	0	0	885	> 10000	> 10000	> 10000
CCN(CCO)CCCOc1ccc2c(Nc3cc(CC(=O)Nc4cccc(F)c4)[nH]n3)ncnc2c1 [AZD1152-HQPA]	6.7	6.6	7.7	5.5	65.8	35.5	56.8	53.4
O=C(/C=C/c1cccc(S(=O)(=O)Nc2ccccc2)c1)NO [Belinostat]	7.1	9.9	0	2.6	1260	1100	> 10000	1530
